Measurements published in ChEMBL document CHEMBL4334467, “Synthesis and SAR Study of Carbamoyl Pyridone Bicycle Derivatives as Potent Inhibitors of Influenza Cap-dependent Endonuclease” (J Med Chem, 2019).
The source made the active and inactive calls. No cut-off for these calls is given here.

Legend:
[1] = target: Polymerase acidic protein (Influenza A virus (A/Puerto Rico/8/1934(H1N1)), UniProt P03433); assay: Inhibition of Influenza A virus (A/WSN/1933(H1N1)) CEN using m7G[5']-ppp-[5'] [m2'-O]GAA UAU(-Cy3) GCAUCACUAGUAAGCUUUGCUCUA(-BHQ2)-3' as substrate measured after 60 mins by fluorescence assay
Influenza A virus [2] = format: functional, organism-based; conditions: A/WSN/1933(H1N1), MDCK, 72 h
[3] = Metabolic stability in Crj:CD(SD) rat liver microsomes assessed as compound remaining at 2 uM incubated for 30 mins by LC/MS/MS analysis; format: ADME, Microsome; conditions: read-out: Stability
[4] = In vivo total clearance in Sprague-Dawley rat at 0.5 mg/kg, iv administered as single dose after 2 to 360 mins by LC/MS/MS analysis; format: ADME, organism-based
[5] = Protein binding in rat serum assessed as unbound fraction after 24 hrs by LC-MS based equilibrium dialysis analysis; format: ADME, cell-free
Influenza A virus [6] = format: functional, organism-based; conditions: A/Puerto Rico/8/1934(H1N1), MDCK, 72 h
Influenza A virus H3N2 [7] = format: functional, organism-based; conditions: A/Victoria/3/1975(H3N2), MDCK, 72 h
Influenza A virus H3N2 [8] = format: functional, organism-based; conditions: A/Hong Kong/8/68, MDCK, 72 h
Influenza B virus [9] = assay: Antiviral activity against Influenza B virus (B/Hong Kong/05/72) infected in MDCK cells assessed as reduction in virus-induced cytopathic effect incubated for 72 hrs by WST assay; format: functional, organism-based; conditions: B/Hong Kong/05/1972, MDCK
Influenza B virus [10] = assay: Antiviral activity against Influenza B virus (B/Maryland/1/59) infected in MDCK cells assessed as reduction in virus-induced cytopathic effect incubated for 72 hrs by WST assay; format: functional, organism-based
Influenza B virus [11] = assay: Antiviral activity against Influenza B virus (B/Maryland/1/59) infected in iv dosed BALB/C mouse administered once daily; format: functional
Influenza B virus [12] = assay: Antiviral activity against Influenza B virus (B/Maryland/1/59) infected in BALB/C mouse assessed as mouse survival at 10 mg/kg, iv administered once daily relative to control; format: functional
Influenza B virus [13] = assay: Antiviral activity against Influenza B virus (B/Maryland/1/59) infected in BALB/C mouse assessed as increase in mouse survival at 0.08 to 2 mg/kg, iv administered once daily; format: functional, organism-based
[14] = Cytotoxicity against MDCK cells after 3 days by WST-8 assay; format: cell-based, Canis lupus familiaris; conditions: dog
[15] = target: Polymerase acidic protein (Influenza A virus (A/Puerto Rico/8/1934(H1N1)), UniProt P03433); assay: Inhibition of Influenza A virus CEN
Influenza A virus [16] = assay: microbe, parasite or virus in culture
Description: Antiviral activity against Influenza A virus

Influenza A virus [17] = format: functional, organism-based; conditions: MDCK

## CC(C)N1CN(C(c2ccccc2)c2ccccc2)n2ccc(=O)c(O)c2C1=O
[1]
  IC50: 286 nM
Influenza A virus [2]
  EC50: 81.6 nM
[3]
  remaining at 0.5 h, 2 µM: 86%
[4]
  clearance: 10.9 mL/min/kg
[5]
  fraction unbound at 24 h: 0.0377
Influenza A virus [6]
  EC50: 183 nM
Influenza A virus H3N2 [7]
  EC50: 829 nM
Influenza A virus H3N2 [8]
  EC50: 302 nM
Influenza B virus [9]
  EC50: 124 nM
Influenza B virus [10]
  EC50: 176 nM
Influenza B virus [11]
  Activity: Dose-dependent effect
  ED50: 0.89 mg/kg/day
Influenza B virus [12]
  survival at 10 mg/kg: 100%
Influenza B virus [13]
  Activity: inactive
[14]
  CC50 at 72 h: > 25000 nM

## COCCN1C[C@H](C(c2ccccc2)c2ccccc2)n2cc(C(=O)O)c(=O)c(O)c2C1=O
[1]
  IC50: 47.8 nM
Influenza A virus [2]
  EC50: 293 nM

## COCCN1C[C@H](CC(C)C)n2cc(C(=O)O)c(=O)c(O)c2C1=O
[1]
  IC50: 9310 nM

## COCCN1C[C@H](C(c2ccccc2)c2ccccc2)n2cc(N)c(=O)c(O)c2C1=O
[1]
  IC50: 358 nM
Influenza A virus [2]
  EC50: 3860 nM

## COCCN1C[C@H](Cc2ccccc2)n2cc(C(=O)O)c(=O)c(O)c2C1=O
[1]
  IC50: 241 nM
Influenza A virus [2]
  EC50: > 50000 nM

## COCCN1C[C@@H](Cc2ccccc2)n2cc(C(=O)O)c(=O)c(O)c2C1=O
[1]
  IC50: 27400 nM
Influenza A virus [2]
  EC50: > 50000 nM

## O=c1oc2ccc(-c3ccc(F)cc3)cc2cc1O
[15]
  IC50: 500 nM

## COCCN1CN(Cc2ccc(F)cc2)n2cc(C(=O)O)c(=O)c(O)c2C1=O
[1]
  IC50: 419 nM
Influenza A virus [2]
  EC50: > 25000 nM

## COCCN1C[C@H](CCc2ccccc2)n2cc(C(=O)O)c(=O)c(O)c2C1=O
[1]
  IC50: 1350 nM

## O=C1c2c(O)c(=O)ccn2N(C(c2ccccc2)c2ccccc2)CN1Cc1ccco1
[1]
  IC50: 588 nM
Influenza A virus [2]
  EC50: 478 nM
[3]
  remaining at 0.5 h, 2 µM: 50.6%
[4]
  clearance: 42.6 mL/min/kg
[5]
  fraction unbound at 24 h: 0.0217

## O=c1[nH]c(-c2ccc(F)cc2)c(-c2ccc(-c3nnn[nH]3)cc2)cc1O
Influenza A virus [16]
  EC50: 11400 nM

## CC(C)N1C[C@H](C(c2ccccc2)c2ccccc2)n2ccc(=O)c(O)c2C1=O
[1]
  IC50: 239 nM
Influenza A virus [2]
  EC50: 57.5 nM
[3]
  remaining at 0.5 h, 2 µM: 78.7%
[4]
  clearance: 25.3 mL/min/kg
[5]
  fraction unbound at 24 h: 0.182
Influenza A virus [6]
  EC50: 194 nM
Influenza A virus H3N2 [7]
  EC50: 488 nM
Influenza A virus H3N2 [8]
  EC50: 232 nM
Influenza B virus [9]
  EC50: 100 nM
Influenza B virus [10]
  EC50: 177 nM

## COCCN1C[C@H](C(C)C)n2cc(C(=O)O)c(=O)c(O)c2C1=O
[1]
  IC50: 2990 nM

## COCCN1CN(C(c2ccccc2)c2ccccc2)n2ccc(=O)c(O)c2C1=O
[1]
  IC50: 103 nM
Influenza A virus [2]
  EC50: 75.2 nM
[3]
  remaining at 0.5 h, 2 µM: 83.4%
[4]
  clearance: 47.4 mL/min/kg
[5]
  fraction unbound at 24 h: 0.129

## COCCN1C[C@H](C(c2ccccc2)c2ccccc2)n2cc(OC)c(=O)c(O)c2C1=O
[1]
  IC50: 110 nM
Influenza A virus [2]
  EC50: 1680 nM

## COCCN1C[C@H](C(c2ccccc2)c2ccccc2)n2ccc(=O)c(O)c2C1=O
[1]
  IC50: 115 nM
Influenza A virus [2]
  EC50: 134 nM
[3]
  remaining at 0.5 h, 2 µM: 79.7%
[4]
  clearance: 42.2 mL/min/kg
[5]
  fraction unbound at 24 h: 0.297

## COCCN1C[C@H](c2ccccc2)n2cc(C(=O)O)c(=O)c(O)c2C1=O
[1]
  IC50: 27800 nM
Influenza A virus [2]
  EC50: > 50000 nM

## O=C(O)c1cn(CC2(n3ccc4cccnc43)CCCC2)cc(O)c1=O
[15]
  IC50: 5 nM
Influenza A virus [16]
  EC50: 201 nM

## O=C(NCCc1ccc(O)c(O)c1)c1cc2cc(O)c(O)cc2[nH]1
[15]
  IC50: 940 nM
Influenza A virus [16]
  EC50: 16000 nM

## COCCN1CN(C(c2ccccc2)c2ccccc2)n2cc(C(=O)O)c(=O)c(O)c2C1=O
[1]
  IC50: 116 nM
Influenza A virus [2]
  EC50: 1470 nM

## COCCN1C[C@H](C(c2ccccc2)c2ccccc2)n2cc(C)c(=O)c(O)c2C1=O
[1]
  IC50: 281 nM
Influenza A virus [2]
  EC50: 2470 nM

## CN1C[C@H](C(c2ccccc2)c2ccccc2)n2ccc(=O)c(O)c2C1=O
[1]
  IC50: 80.4 nM
Influenza A virus [2]
  EC50: 144 nM
[3]
  remaining at 0.5 h, 2 µM: 79.9%
[4]
  clearance: 31.6 mL/min/kg
[5]
  fraction unbound at 24 h: 0.285

## COCCN1C[C@H](C(c2ccccc2)c2ccccc2)n2cc(Cl)c(=O)c(O)c2C1=O
Influenza A virus [2]
  EC50: 541 nM

## CNC(=O)c1cn2c(c(O)c1=O)C(=O)N(CCOC)C[C@@H]2C(c1ccccc1)c1ccccc1
[1]
  IC50: 1590 nM
Influenza A virus [2]
  EC50: 7110 nM

## O=C1N/C(=N\N=C2\C(=O)Nc3ccccc32)S/C1=C1\C(=O)Nc2ccccc21
Influenza A virus [17]
  EC50: 800 nM

## CCOC(=O)c1cn2c(c(O)c1=O)C(=O)N(CCOC)C[C@@H]2C(c1ccccc1)c1ccccc1
[1]
  IC50: 298 nM
Influenza A virus [2]
  EC50: 2530 nM

## CN1CN(C(c2ccccc2)c2ccccc2)n2ccc(=O)c(O)c2C1=O
[1]
  IC50: 164 nM
Influenza A virus [2]
  EC50: 81.6 nM
[3]
  remaining at 0.5 h, 2 µM: 92.1%
[4]
  clearance: 18.8 mL/min/kg
[5]
  fraction unbound at 24 h: 0.07

## O=C(O)/C(O)=C/C(=O)C1(Cc2ccc(Cl)cc2)CCN(Cc2ccccc2)CC1
Influenza A virus [2]
  EC50: 38300 nM

## COCCN1CCn2cc(C(=O)O)c(=O)c(O)c2C1=O
[1]
  IC50: 68600 nM
